Data as given in ChEMBL document CHEMBL3351608, “2-Phenylindole and Arylsulphonamide: Novel Scaffolds Bactericidal against Mycobacterium tuberculosis” (ACS Med Chem Lett, 2014).
In brackets after ≈: the same amount, converted by molar mass.

Key:
Assay in all cases: microbe, parasite or virus in culture
Conditions in all cases: variant bovis BCG, 3 h
[1] = tested on: Mycobacterium tuberculosis
[2] = tested on: Mycobacterium tuberculosis; remark: listed apart in the source
[3] = tested on: Mycobacterium tuberculosis; remark: listed apart in the source

Compound `O=C(N[C@H](CO)[C@H](O)c1ccc([N+](=O)[O-])cc1)C(Cl)Cl` [CHLORAMPHENICOL] has an IC50 [1] of 5.6 µg/mL (≈ 17.3 µM).

`CO[C@H]1/C=C/O[C@@]2(C)Oc3c(C)c(O)c4c(O)c(c(/C=N/N5CCN(C)CC5)c(O)c4c3C2=O)NC(=O)/C(C)=C\C=C\[C@H](C)[C@H](O)[C@@H](C)[C@@H](O)[C@@H](C)[C@H](OC(C)=O)[C@@H]1C` [RIFAMPIN] showed an IC50 [2] of 2.9 µg/mL (≈ 3.52 µM) and an IC50 [1] of 2 µg/mL (≈ 2.43 µM).

Compound `C[C@@H]1CN(c2c(F)c(N)c3c(=O)c(C(=O)O)cn(C4CC4)c3c2F)C[C@H](C)N1` [SPARFLOXACIN] has an IC50 [2] of 7.3 µg/mL (≈ 18.6 µM), an IC50 [1] of 11.4 µg/mL (≈ 29.1 µM) and an IC50 [3] of 16.7 µg/mL (≈ 42.6 µM).
